Molecular target: T1, protein-protein interaction between SOS1 and KRAS-G12D (Homo sapiens, UniProt Q07889)
T1 construct: The purified GST-SOS1 catalytic domain (residues 564-1049) was first diluted in assay buffer; made in house; host or cells: E. coli BL21 (DE3) for SOS1; E. coli BL21 carrying a BirA plasmid for KRAS-G12D
T1 sequence (Q07889 564-1049): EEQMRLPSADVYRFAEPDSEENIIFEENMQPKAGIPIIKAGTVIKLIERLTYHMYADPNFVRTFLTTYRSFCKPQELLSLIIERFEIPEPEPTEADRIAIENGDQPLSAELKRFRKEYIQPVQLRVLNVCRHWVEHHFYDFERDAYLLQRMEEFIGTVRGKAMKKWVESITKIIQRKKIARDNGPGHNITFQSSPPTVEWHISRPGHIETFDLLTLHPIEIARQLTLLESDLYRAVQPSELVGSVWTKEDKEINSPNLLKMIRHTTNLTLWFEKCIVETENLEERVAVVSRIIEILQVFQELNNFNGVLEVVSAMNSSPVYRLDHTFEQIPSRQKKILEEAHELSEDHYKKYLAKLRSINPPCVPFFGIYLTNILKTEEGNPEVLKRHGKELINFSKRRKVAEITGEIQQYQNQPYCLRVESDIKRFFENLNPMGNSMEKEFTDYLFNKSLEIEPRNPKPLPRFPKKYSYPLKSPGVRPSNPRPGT
Test: HTRF Based Protein-Protein Interaction Assay
Format: binding
Settings: HTRF; GST-SOS1 2.5 nM, KRAS-G12D 100 nM, GDP 10 uM; read-out: IC50 value, inhibition of SOS1/KRAS-G12D protein-protein interaction
Description: A KRAS-G12D and SOS1 binding/interaction assay was designed to measure the interaction between KRAS-G12D and SOS1 proteins. Utilizing HTRF (Homogeneous Time-Resolved Fluorescence) technology, the assay enabled simple and rapid characterization of compound and protein interaction in a high throughput format. This assay was used to examine potency of the compounds in inhibiting the protein-protein interaction between SOS1 and KRAS-G12D. […] Low IC50 values are indicative of high potency of the SOS1 inhibitor compound to disrupt SOS1 and Kras-G12D interaction.
Protein Expression and Purification. The corresponding gene sequence to human SOS1 (residues 564-1049, UniProt ID: Q07889; SEQ ID NO: 2) was synthesized and fused in frame with GST expression vector. After the desired sequence was confirmed, plasmid containing the sequence was transformed into the E. coli strain BL21 (DE3). Bacteria were growing at 37° C. in LB media containing 50 μg/ml Kanamycin to give OD600 of 0.6-0.8. Then 0.2 mM IPTG was added to induce protein expression for 16 hours at 17° C. Bacteria were harvested by centrifugation and stored at −80° C. Bacteria pellets were resuspended in lysis buffer (25 mM Tris-HCl, 500 mM NaCl, 2 mM DTT, 2.3% sucrose, 0.3% dextran-10, 1 mM PMSF, pH 7.5) and lysed using high-pressure homogenizer. The lysate was cleared by centrifugation for 30 minutes (12000 rpm at 4° C.). The supernatant containing GST-SOS1 fragment was purified sequentially through Glutathione column and gel filtration (Hiload 16/600 Superdex […] column, Cytiva). The purified GST-SOS1 fragment was confirmed by SDS-PAGE and stored in 25 mM Tris-HCl, 100 mM NaCl, 1 mM DTT, 2.3% sucrose, 0.3% dextran-10, pH 7.5 at −80° C.
Kras-G12D Protein Purification. The sequence corresponding to human KRAS-G12D (residues 1-169, UniProt P01116-2; SEQ ID NO: 1) was synthesized and fused in frame with His-AVI-TEV vector. The plasmid was transformed into the E. coli strain BL21 (containing a plasmid that can generate BirA enzyme). Bacteria were growing at 37° C. in TB media containing 100 μg/ml ampicillin and 50 μg/ml Kanamycin to give OD600 of 0.6-0.8. The 0.5 mM IPTG and 50 mg/l biotin were added to induce protein expression for 16 hours at 25° C. Bacteria were harvested by centrifugation and stored at −80° C. Bacteria pellets were re-suspended in lysis buffer (20 mM Tris-HCl, 500 mM NaCl, 5 mM MgCl2, 2 mM […], 5% glycerol, pH 8.0) and lysed using high-pressure homogenizer. The lysate was cleared by centrifugation for 30 minutes (12000 rpm at 4° C.). The supernatant containing HIS-AVI-TEV-KRAS-G12D fragment was purified sequentially through Ni-NTA column (SMART), Streptactin column (SMART), and gel filtration (Hiload 16/600 Superdex 75 pg, GE). The purified HIS-AVI-TEV-KRAS-G12D fragment was confirmed by SDS-PAGE and stored in 50 mM HEPES-NaOH, 100 mM NaCl, 1 mM DTT, 5 mM MgCl2, pH 7.5 at −80° C.
Protein-Protein Interaction Assay. An assay buffer containing 50 mM HEPES, pH 7.5, 50 mM NaCl, 0.01% Brij-35, 1 mM TCEP, 0.1% BSA was prepared, and concentration series of test compounds were generated spanning from 0.5 nM to 10 μM over 10 3-fold serial dilutions in a 384-well assay plate at a volume of 20 pL. The purified GST-SOS1 catalytic domain (residues 564-1049) was first diluted in assay buffer and 5 μl of SOS1 (final concentration 2.5 nM in assay mixture) was directly dispensed into compound plates. After a spin down at 1000 RPM for 30 seconds, the SOS1/compound mixture was incubated at 25° C. for 15 minutes to allow the reaction between SOS1 and the compound. A KRAS-G12D mixture was prepared by incubation of avi-tagged Kras-G12D (residue 1-169) and GDP in assay buffer containing 10 mM MgCl2 at room temperature for 10 minutes. A KRAS-G12D and GDP mixture (5 μL) was added to the assay plate (final KRAS-G12D was 100 nM and GDP was 10 uM). The plate was centrifuged at 1000 rpm for 30 sec and incubated at 25° C. for 60 minutes. […]

Row | SMILES | IC50 [nM]
1 | C=C[C@@H](Nc1nc(C)nc2cc(=O)n(C3(C)CC3)cc12)c1cccc(C(F)(F)F)c1C [Compound 22, (R)-2-methyl-4-((1-(2-methyl-3-(trifluoromethyl)phenyl)allyl)amino)-6-(1-methylcyclopropyl)pyrido[4,3-d]pyrimidin-7(6H)-one] | < 100
2 | C#C[C@@H](Nc1nc(C)nc2cc(=O)n(N[C@H]3CCOC3)cc12)c1cccc(C(F)F)c1C [Compound 16, 4-(((R)-1-(3-(difluoromethyl)-2-methylphenyl)prop-2-yn-1-yl)amino)-2-methyl-6-(((S)-tetrahydrofuran-3-yl)amino)pyrido[4,3-d]pyrimidin-7(6H)-one] | 100 to 200
3 | C#C[C@@H](Nc1nc(C)nc2c(F)c(=O)n(C3(C(F)F)CC3)cc12)c1cccc(C(F)F)c1F [Compound 27, (R)-4-((1-(3-(difluoromethyl)-2-fluorophenyl)prop-2-yn-1-yl)amino)-6-(1-(difluoromethyl)cyclopropyl)-8-fluoro-2-methylpyrido[4,3-d]pyrimidin-7(6H)-one] | < 100
4 | C#C[C@@H](Nc1nc(C)nc2cc(=O)n(C3(C#C)CC3)cc12)c1cccc(C(F)(F)F)c1C [Compound 5, (R)-6-(1-ethynylcyclopropyl)-2-methyl-4-((1-(2-methyl-3-(trifluoromethyl)phenyl)prop-2-yn-1-yl)amino)pyrido[4,3-d]pyrimidin-7(6H)-one] | < 100
5 | C#C[C@@H](Nc1nc(C)nc2cc(=O)n(C3CC4(CNC4)C3)cc12)c1cccc(C(F)F)c1C [Compound 37, (R)-4-((1-(3-(difluoromethyl)-2-methylphenyl)prop-2-yn-1-yl)amino)-2-methyl-6-(2-azaspiro[3.3]heptan-6-yl)pyrido[4,3-d]pyrimidin-7(6H)-one] | < 100
6 | C#C[C@@H](Nc1nc(C)nc2cc(=O)n(C3(C(F)F)CC3)cc12)c1cccc(C(C)(F)F)c1F [Compound 25, (R)-4-((1-(3-(1,1-difluoroethyl)-2-fluorophenyl)prop-2-yn-1-yl)amino)-6-(1-(difluoromethyl)cyclopropyl)-2-methylpyrido[4,3-d]pyrimidin-7(6H)-one] | < 100
7 | C#C[C@@H](Nc1nc(C)nc2c(F)c(=O)n(C3(C(F)F)CC3)cc12)c1cccc(C(F)(F)F)c1C [Compound 14, (R)-6-(1-(difluoromethyl)cyclopropyl)-8-fluoro-2-methyl-4-((1-(2-methyl-3-(trifluoromethyl)phenyl)prop-2-yn-1-yl)amino)pyrido[4,3-d]pyrimidin-7(6H)-one] | < 100
8 | C#C[C@@H](Nc1nc(C)nc2cc(=O)n(C3(C4CCOC4)CC3)cc12)c1cccc(C(F)(F)F)c1C (stereo partly drawn) [Compound 34, 2-methyl-4-(((R)-1-(2-methyl-3-(trifluoromethyl)phenyl)prop-2-yn-1-yl)amino)-6-(1-(tetrahydrofuran-3-yl)cyclopropyl)pyrido[4,3-d]pyrimidin-7(6H)-one] | < 100
9 | C#C[C@@H](Nc1nc(C)nc2cc(=O)n(C3(C(F)F)CC3)cc12)c1cccc(Br)c1F [Compound 41, (R)-4-((1-(3-bromo-2-fluorophenyl)prop-2-yn-1-yl)amino)-6-(1-(difluoromethyl)cyclopropyl)-2-methylpyrido[4,3-d]pyrimidin-7(6H)-one] | 100 to 200
10 | C#C[C@@H](Nc1nc(C)nc2cc(=O)n(C34CC(C3)C4)cc12)c1cccc2c1CCC2(F)F [Compound 2, (R)-6-(bicyclo[1,1,1]pentan-1-yl)-4-((1-(1,1-difluoro-2,3-dihydro-1H-inden-4-yl)prop-2-yn-1-yl)amino)-2-methylpyrido[4,3-d]pyrimidin-7(6H)-one] | < 100
11 | C#C[C@@H](Nc1nc(C)nc2cc(=O)n([C@H]3C[C@H](F)C3)cc12)c1cccc(C(F)(F)F)c1C [Compound 10, 6-((1S,3S)-3-fluorocyclobutyl)-2-methyl-4-(((R)-1-(2-methyl-3-(trifluoromethyl)phenyl)prop-2-yn-1-yl)amino)pyrido[4,3-d]pyrimidin-7(6H)-one] | < 100
12 | C#C[C@@H](Nc1nc(C)nc2cc(=O)n(C3(C#N)CC3)cc12)c1cccc(C(F)(F)F)c1C [Compound 6, (R)-1-(2-methyl-4-((1-(2-methyl-3-(trifluoromethyl)phenyl)prop-2-yn-1-yl)amino)-7-oxopyrido[4,3-d]pyrimidin-6(7H)-yl)cyclopropane-1-carbonitrile] | < 100
13 | C#C[C@@H](Nc1ncnc2c1cc(C1(F)CCN(C(C)=O)CC1)c(=O)n2C)c1cccc(C(F)F)c1F [Compound 47, 6-(1-acetyl-4-fluoropiperidin-4-yl)-4-{[(1R)-1-[3-(difluoromethyl)-2-fluorophenyl]prop-2-yn-1-yl]amino}-8-methyl-7H,8H-pyrido[2,3-d]pyrimidin-7-one] | < 100
14 | C#C[C@@H](Nc1nc(C)nc2cc(=O)n(C3(C)CC3)cc12)c1cccc(C(C)(F)F)c1F [Compound 19, (R)-4-((1-(3-(1,1-difluoroethyl)-2-fluorophenyl)prop-2-yn-1-yl)amino)-2-methyl-6-(1-methylcyclopropyl)pyrido[4,3-d]pyrimidin-7(6H)-one] | < 100

— patent publication US20220324862A1, “PYRIDOPYRIMIDINONE COMPOUNDS” (Acerand Therapeutics (USA) Limited, priority 2021, published 2022)
